The target of assay [1] is T1, human soluble TNFR1 (sTNFR1) (Homo sapiens, UniProt P19438).
T1 construct: made in house; host or cells: Sf21 (baculovirus)
T1 sequence (P19438 with tags, fused parts or gaps): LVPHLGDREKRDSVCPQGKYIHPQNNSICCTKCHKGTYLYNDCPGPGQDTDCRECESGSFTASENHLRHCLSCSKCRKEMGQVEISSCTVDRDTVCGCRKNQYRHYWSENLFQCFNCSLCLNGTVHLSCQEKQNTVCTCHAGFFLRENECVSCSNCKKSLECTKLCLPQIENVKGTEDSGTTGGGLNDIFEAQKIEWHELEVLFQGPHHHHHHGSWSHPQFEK
As to the kind of experiment: Human sTNFR1-peptide displacement assay (LanthaScreen Eu TR-FRET binding assay). In short, it runs like this: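 Readout is the 665/615 nm TR-FRET ratio (Eu anti-His donor, streptavidin-Alexa647 acceptor), normalized to DMSO and saturating displacer, fit by Morrison-based five-parameter logistic for Kd^app. His-tagged sTNFR1 (1-211) prebound to 100 nM biotinylated peptide SEQ ID NO.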
For orientation: In TR-FRET formats the signal depends on donor and acceptor labels being close together.

Assay [2] addresses T2, human TNFR1 extracellular domain (ECD) protein (Homo sapiens, UniProt P19438).
T2 construct: HRV 3C protease cleavage site (C); 6His (C, cleaved yes); made in house; host or cells: Sf21 insect cells (baculovirus), secreted
T2 sequence (P19438 30-211): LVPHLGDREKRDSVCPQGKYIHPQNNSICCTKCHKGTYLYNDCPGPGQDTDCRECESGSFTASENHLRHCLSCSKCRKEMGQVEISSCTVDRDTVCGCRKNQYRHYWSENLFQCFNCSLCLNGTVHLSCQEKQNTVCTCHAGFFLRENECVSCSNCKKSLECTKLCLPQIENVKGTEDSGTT
The assay can be described thus: SPR binding affinity to captured human TNFR1 ECD. The procedure, abridged:
(§1)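 Biotinylated avi-tagged human TNFR1 or TNFR2 ECD, expressed in Sf21 insect cells, captured on streptavidin SPR chip; peptide analytes run in 10 mM HEPES pH 7.4, 150 mM NaCl, 3 mM EDTA, 0.05% P20, 2% DMSO. kon and koff measured, affinity KA calculated.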

The target of the next assay is T3, human TNFR2 ECD protein (Homo sapiens, UniProt P20333).
T3 construct: HRV 3C protease cleavage site (C); 6His (C, cleaved yes); made in house; host or cells: Sf21 insect cells (baculovirus), secreted
T3 sequence (P20333 23-257): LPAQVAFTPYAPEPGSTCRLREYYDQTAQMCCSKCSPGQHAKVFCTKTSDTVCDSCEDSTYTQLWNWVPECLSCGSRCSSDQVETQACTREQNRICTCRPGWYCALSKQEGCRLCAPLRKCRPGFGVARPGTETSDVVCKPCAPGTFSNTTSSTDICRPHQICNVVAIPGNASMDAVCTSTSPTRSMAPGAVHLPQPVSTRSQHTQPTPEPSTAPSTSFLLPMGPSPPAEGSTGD
The assay can be described thus: SPR off-target binding (selectivity) to human TNFR2 ECD. In short, it runs like this:
as §1

Each structure is given as a SMILES string. Numbered stars: 1 amine (or outer) side, 2 acyl side, 3 side chain; on linkers, the order of the positions; unused ones are H or OH. Bridge positions count the residues as written; N and C are the ends. Square brackets hold non-standard residues; d marks the D form. Peptide text beside a SMILES is read from it. * marks the point of attachment. Trp(βS-Me,7-OMe) = COc1cccc2c([C@H](C)[C@H](N)C(=O)O)c[nH]c12; cBu(1-CO,cis-3-CH2NH) = O=C([C@H]1C[C@@H](CN[*:1])C1)[*:2]; Trp(4-Cl) = N[C@@H](Cc1c[nH]c2cccc(Cl)c12)C(=O)O; Trp(7-Cl) = N[C@@H](Cc1c[nH]c2c(Cl)cccc12)C(=O)O; Phe(4-CONH2) = NC(=O)c1ccc(C[C@H](N)C(=O)O)cc1; Phe(4-COOH) = N[C@@H](Cc1ccc(C(=O)O)cc1)C(=O)O; Trp(7-F) = N[C@@H](Cc1c[nH]c2c(F)cccc12)C(=O)O; Trp(7-aza) = N[C@@H](Cc1c[nH]c2ncccc12)C(=O)O; X10 = O=C([C@H](Cc1ccnc2ccccc12)N[*:1])[*:2]; Phe(4-CH2NH2) = NCc1ccc(C[C@H](N)C(=O)O)cc1; X2 = C[C@@H]1CC[C@@H](C(=O)[*:2])N([*:1])C1; Pip(5R-OH) = O=C(O)[C@@H]1CC[C@@H](O)CN1; X13 = O=C([C@H]1CC[C@@H](N[*:1])C1)[*:2]; αMeW = C[C@](N)(Cc1c[nH]c2ccccc12)C(=O)O; X1 = O=C([C@@H]1CC[C@H](N[*:1])C1)[*:2]; dPro(4,4-F2) = O=C(O)[C@H]1CC(F)(F)CN1; X6 = O=C([C@@H](N[*:1])C1(O)CC1)[*:2]; Pip(4-aza) = O=C(O)[C@@H]1CNCCN1; hPhe = N[C@@H](CCc1ccccc1)C(=O)O; 4Pal = N[C@@H](Cc1ccncc1)C(=O)O; NMeE = CN[C@@H](CCC(=O)O)C(=O)O; αMeS = C[C@](N)(CO)C(=O)O; Carboxymethyl = O=C(O)C*; NMeA = CN[C@@H](C)C(=O)O; Nle = CCCC[C@H](N)C(=O)O; Sar = CNCC(=O)O Where only a bound is given, the exact number is not on record here.

Broadly, the Kd is the constant that tells how readily two partners part at equilibrium. Read a high Kd as lower affinity. `CCCC[C@@H]1NC(=O)[C@@H]2CC[C@@H](C2)NC(=O)[C@H]([C@@H](C)c2c[nH]c3c(OC)cccc23)NC(=O)CN(C)C(=O)[C@H](Cc2ccc(O)cc2)NC(=O)[C@H](Cc2ccc(C(=O)O)cc2)NC(=O)[C@](C)(CO)NC(=O)[C@H](Cc2c[nH]c3c(Cl)cccc23)NC(=O)[C@H](Cc2ccncc2)NC(=O)[C@H](CC(N)=O)NC(=O)[C@H](CCC(=O)O)N(C)C(=O)[C@H](Cc2c[nH]c3c(Cl)cccc23)NC(=O)[C@@H]2CNCCN2C(=O)[C@H](Cc2ccncc2)NC1=O` [SEQ ID NO. 262] (cyclo([4Pal][Trp(7-Cl)][αMeS][Phe(4-COOH)]Y[Sar][Trp(βS-Me,7-OMe)][X1][Nle][4Pal][Pip(4-aza)][Trp(7-Cl)][NMeE]N)): the dissociation constant Kd in assay [1] is 0.39 nM; in assay [2], 0.24 nM; at human TNFR2 ECD protein, greater than 1000 nM.
As a reminder, the IC50 is the concentration at which inhibition is half-maximal. High values mean a need for much substance, low ones inhibition by little substance. In assay [1], `C[C@H]1C(=O)N[C@@H](CC(N)=O)C(=O)N[C@@H](Cc2ccncc2)C(=O)N[C@@H](Cc2c[nH]c3ccccc23)C(=O)N[C@@](C)(CO)C(=O)N[C@@H](Cc2ccc(C(=O)O)cc2)C(=O)N[C@@H](Cc2ccc(O)cc2)C(=O)N(C)CC(=O)N[C@@H](Cc2c[nH]c3ccccc23)C(=O)N[C@H](C(N)=O)CSCC(=O)N[C@@H](CCc2ccccc2)C(=O)N[C@@H](Cc2ccc(O)cc2)C(=O)N[C@@H](CO)C(=O)N[C@@H](Cc2c[nH]c3c(F)cccc23)C(=O)N1C` [SEQ ID NO. 263] ({CH2CO}-[hPhe]YS[Trp(7-F)][NMeA]N[4Pal]W[αMeS][Phe(4-COOH)]Y[Sar]WC-NH2; thioether N-14) gave an IC50 of 2.88 nM. For the same compound, the results for the Kd (in assay [2]; at human TNFR2 ECD protein) were 1.6 nM and greater than 1000 nM, respectively.
As for `CCCC[C@@H]1NC(=O)[C@@H]2CC[C@@H](C2)NC(=O)[C@H]([C@@H](C)c2c[nH]c3c(OC)cccc23)NC(=O)CN(C)C(=O)[C@H](Cc2ccc(O)cc2)NC(=O)[C@H](Cc2ccc(C(=O)O)cc2)NC(=O)[C@](C)(CO)NC(=O)[C@H](Cc2c[nH]c3c(Cl)cccc23)NC(=O)[C@H](Cc2ccncc2)NC(=O)[C@H](CC(N)=O)NC(=O)[C@H]2CC(F)(F)CN2C(=O)[C@H](Cc2c[nH]c3ccccc23)NC(=O)[C@@H]2CNCCN2C(=O)[C@H](Cc2ccncc2)NC1=O` [SEQ ID NO. 266] (cyclo([4Pal][Trp(7-Cl)][αMeS][Phe(4-COOH)]Y[Sar][Trp(βS-Me,7-OMe)][X1][Nle][4Pal][Pip(4-aza)]W[dPro(4,4-F2)]N)), the figures for the dissociation constant (Kd) (in assay [1]; in assay [2]; at human TNFR2 ECD protein) were 0.45 nM, 0.06 nM and greater than 1000 nM, respectively.
In the same order, the values of `CCCC[C@@H]1NC(=O)[C@H]2CC[C@H](C2)NC(=O)[C@H]([C@@H](C)c2c[nH]c3c(OC)cccc23)NC(=O)CN(C)C(=O)[C@H](Cc2ccc(O)cc2)NC(=O)[C@H](Cc2ccc(C(N)=O)cc2)NC(=O)[C@](C)(CO)NC(=O)[C@H](Cc2c[nH]c3c(Cl)cccc23)NC(=O)[C@H](Cc2ccc(C(=O)O)cc2)NC(=O)[C@H](CC(N)=O)NC(=O)[C@H](CCC(=O)O)N(C)C(=O)[C@H](Cc2c[nH]c3ccccc23)NC(=O)[C@@H]2CC[C@@H](O)CN2C(=O)[C@H](Cc2ccncc2)NC1=O` [SEQ ID NO. 267] (cyclo([4Pal][Pip(5R-OH)]W[NMeE]N[Phe(4-COOH)][Trp(7-Cl)][αMeS][Phe(4-CONH2)]Y[Sar][Trp(βS-Me,7-OMe)][X13][Nle])) are 0.29 nM, 0.14 nM and greater than 1000 nM.
On to `CCCC[C@@H]1NC(=O)[C@H]2C[C@@H](CNC(=O)[C@H]([C@@H](C)c3c[nH]c4c(OC)cccc34)NC(=O)CN(C)C(=O)[C@H](Cc3ccc(O)cc3)NC(=O)[C@H](Cc3ccc(C(=O)O)cc3)NC(=O)[C@](C)(CO)NC(=O)[C@H](Cc3c[nH]c4c(Cl)cccc34)NC(=O)[C@H](Cc3ccncc3)NC(=O)[C@H](CC(N)=O)NC(=O)[C@H](CCC(=O)O)N(C)C(=O)[C@H](Cc3c[nH]c4ccccc34)NC(=O)[C@@H]3CNCCN3C(=O)[C@H](Cc3ccncc3)NC1=O)C2` [SEQ ID NO. 268] (cyclo([4Pal][Trp(7-Cl)][αMeS][Phe(4-COOH)]Y[Sar][Trp(βS-Me,7-OMe)][cBu(1-CO,cis-3-CH2NH)][Nle][4Pal][Pip(4-aza)]W[NMeE]N)), for which the IC50 in assay [1] worked out at 0.77 nM. The Kd in assay [1] was 0.45 nM; in assay [2], 0.27 nM; at human TNFR2 ECD protein, greater than 1000 nM.
In the same order, the values of `CCCC[C@@H]1NC(=O)CSC[C@@H](C(N)=O)NC(=O)[C@H]([C@@H](C)c2c[nH]c3c(OC)cccc23)NC(=O)CN(C)C(=O)[C@H](Cc2ccc(O)cc2)NC(=O)[C@H](Cc2ccc(C(=O)O)cc2)NC(=O)[C@](C)(CO)NC(=O)[C@H](Cc2c[nH]c3c(Cl)cccc23)NC(=O)[C@H](Cc2ccncc2)NC(=O)[C@H](CC(N)=O)NC(=O)[C@H](CCC(=O)O)N(C)C(=O)[C@H](Cc2c[nH]c3ccccc23)NC(=O)[C@@H]2CC[C@@H](C)CN2C(=O)[C@H](Cc2ccncc2)NC1=O` [SEQ ID NO. 272] ({CH2CO}-[Nle][4Pal][X2]W[NMeE]N[4Pal][Trp(7-Cl)][αMeS][Phe(4-COOH)]Y[Sar][Trp(βS-Me,7-OMe)]C-NH2; thioether N-14) are 0.3 nM, 0.21 nM, 0.1 nM and greater than 1000 nM.
As for `C[C@@]1(CO)NC(=O)[C@H](Cc2c[nH]c3ncccc23)NC(=O)[C@H](Cc2ccncc2)NC(=O)[C@H](CC(N)=O)NC(=O)[C@H]2CCCN2C(=O)[C@H](Cc2ccnc3ccccc23)NC(=O)[C@H](CO)NC(=O)[C@H](Cc2ccncc2)NC(=O)[C@H](CCC(N)=O)NC(=O)CSC[C@@H](C(N)=O)NC(=O)[C@H](Cc2c[nH]c3cccc(Cl)c23)NC(=O)[C@@H]2CCCN2C(=O)[C@H](Cc2ccc(O)cc2)NC(=O)[C@H](Cc2ccc(C(=O)O)cc2)NC1=O` [SEQ ID NO. 278] ({CH2CO}-Q[4Pal]S[X10][dP]N[4Pal][Trp(7-aza)][αMeS][Phe(4-COOH)]YP[Trp(4-Cl)]C-NH2; thioether N-14), the IC50 in assay [1] came to 8.69 nM. Besides, the Kd was 12.8 nM in assay [2] and greater than 1000 nM on human TNFR2 ECD protein.
`CCCC[C@@H]1NC(=O)CSC[C@@H](C(N)=O)NC(=O)[C@](C)(Cc2c[nH]c3ccccc23)NC(=O)CN(C)C(=O)[C@H](Cc2ccc(O)cc2)NC(=O)[C@H](Cc2ccc(C(=O)O)cc2)NC(=O)[C@](C)(CO)NC(=O)[C@H](Cc2c[nH]c3c(Cl)cccc23)NC(=O)[C@H](Cc2ccncc2)NC(=O)[C@H](CC(N)=O)NC(=O)[C@H](CCC(=O)O)N(C)C(=O)[C@H](Cc2c[nH]c3ncccc23)NC(=O)[C@H](C2(O)CC2)NC(=O)[C@H](Cc2ccncc2)NC1=O` [SEQ ID NO. 281] ({CH2CO}-[Nle][4Pal][X6][Trp(7-aza)][NMeE]N[4Pal][Trp(7-Cl)][αMeS][Phe(4-COOH)]Y[Sar][αMeW]C-NH2; thioether N-14) displayed a half-inhibitory concentration (IC50) in assay [1] of 1.4 nM. Moreover, the equilibrium dissociation constant (Kd) was 0.5 nM in assay [2] and greater than 1000 nM on human TNFR2 ECD protein.
Take `CCCC[C@@H]1NC(=O)CSC[C@@H](C(N)=O)NC(=O)[C@](C)(Cc2c[nH]c3ccccc23)NC(=O)CN(C)C(=O)[C@H](Cc2ccc(O)cc2)NC(=O)[C@H](Cc2ccc(OCC(=O)O)cc2)NC(=O)[C@](C)(CO)NC(=O)[C@H](Cc2c[nH]c3c(Cl)cccc23)NC(=O)[C@H](Cc2ccncc2)NC(=O)[C@H](CC(N)=O)NC(=O)[C@H](CCC(=O)O)N(C)C(=O)[C@H](Cc2c[nH]c3ncccc23)NC(=O)[C@H](CO)NC(=O)[C@H](Cc2ccc(CN)cc2)NC1=O` [SEQ ID NO. 283] ({CH2CO}-[Nle][Phe(4-CH2NH2)]S[Trp(7-aza)][NMeE]N[4Pal][Trp(7-Cl)][αMeS]Y(Carboxymethyl)Y[Sar][αMeW]C-NH2; thioether N-14): the 50% inhibitory concentration (IC50) in assay [1] stood at 1.45 nM. Further, the Kd is 0.5 nM in assay [2] and greater than 1000 nM on human TNFR2 ECD protein.
